Measurements as given in ChEMBL document CHEMBL4483862, “Open-source discovery of chemical leads for next-generation chemoprotective antimalarials” (2018).

System: Plasmodium berghei
Test: Luciferase/luciferin-expressing antifolate-resistant parasites were used to infect a culture of HepG2 cells that were pre-incubated with compounds. Infected hepatocytes emit light due to the luciferase reaction. Assay results are presented as the percent inhibition of light emission compared to control. […]
Type: functional
Conditions: sporozoite; for IC90: read-out: LUCIFERASE INFECTION ASSAY - IC90

Row | Structure (SMILES) | IC90 [µM] | further results
1 | Cc1ccc(S(=O)(=O)Nc2cccc3ncccc23)s1 | 3.72 | IC50 (HEPG2TOX_HILL_SLOPE 1.87, HEPG2TOX_R_SQUARED 0.954, PBLUC_HILL_SLOPE 8.9, PBLUC_R_SQUARED 0.583, read-out: LUCIFERASE INFECTION ASSAY - IC50): 2.91 µM
2 | O=C(Nc1cc(Cl)cc(Cl)c1)c1cc(Cl)ccc1O | 1.1 | IC50 (HEPG2TOX_HILL_SLOPE 1.87, HEPG2TOX_R_SQUARED 0.915, PBLUC_HILL_SLOPE 2.8, PBLUC_R_SQUARED 0.713, read-out: LUCIFERASE INFECTION ASSAY - IC50): 0.502 µM
3 | CO/N=C(/CS(=O)(=O)c1ccc(Cl)cc1)c1ccc(Cl)cc1 | 3.25 | IC50 (HEPG2TOX_HILL_SLOPE 1.88, HEPG2TOX_R_SQUARED 0.932, PBLUC_HILL_SLOPE 2.15, PBLUC_R_SQUARED 0.742, read-out: LUCIFERASE INFECTION ASSAY - IC50): 1.17 µM
4 | CN(C)c1ccc(-c2ccc3nnc(-c4ccccc4)n3c2)cc1 | 4.59 | IC50 (HEPG2TOX_HILL_SLOPE 1.89, HEPG2TOX_R_SQUARED 0.955, PBLUC_HILL_SLOPE 2.66, PBLUC_R_SQUARED 0.575, read-out: LUCIFERASE INFECTION ASSAY - IC50): 2.01 µM
5 | COc1cc(C)ccc1Oc1nc2cc(C)nn2c2ccccc12 | > 10 | IC50 (HEPG2TOX_HILL_SLOPE 1.87, HEPG2TOX_R_SQUARED 0.892, read-out: LUCIFERASE INFECTION ASSAY - IC50): > 10 µM
6 | CC(=O)Nc1ccc(-c2cnc3ccc(-c4cccs4)nn23)cc1 | 2.75 | IC50 (HEPG2TOX_HILL_SLOPE 1.84, HEPG2TOX_R_SQUARED 0.871, PBLUC_HILL_SLOPE 5.5, PBLUC_R_SQUARED 0.751, read-out: LUCIFERASE INFECTION ASSAY - IC50): 1.84 µM
7 | Cc1nccc(-c2cccc(N/N=C(\C#N)S(=O)(=O)c3ccccn3)c2)n1 | 8.23 | IC50 (HEPG2TOX_HILL_SLOPE 1.84, HEPG2TOX_R_SQUARED 0.959, PBLUC_HILL_SLOPE 1.78, PBLUC_R_SQUARED 0.641, read-out: LUCIFERASE INFECTION ASSAY - IC50): 2.4 µM
8 | Cc1nc(NCc2ccc(-n3ccnc3)nc2)c2c(-c3ccccc3)csc2n1 | 4.03 | IC50 (HEPG2TOX_HILL_SLOPE 1.9, HEPG2TOX_R_SQUARED 0.893, PBLUC_HILL_SLOPE 8.93, PBLUC_R_SQUARED 0.705, read-out: LUCIFERASE INFECTION ASSAY - IC50): 3.15 µM
9 | COc1cccc(C(=O)Nc2nc3ccc(C)cn3c2C(=O)NC2CCCC2)c1 | 3.16 | IC50 (HEPG2TOX_HILL_SLOPE 1.86, HEPG2TOX_R_SQUARED 0.913, PBLUC_HILL_SLOPE 11.1, PBLUC_R_SQUARED 0.319, read-out: LUCIFERASE INFECTION ASSAY - IC50): 2.59 µM
10 | CCCCc1ccc(C(=O)Nc2nc3ccc(C)cn3c2C(=O)NCCC)cc1 | 3.18 | IC50 (HEPG2TOX_HILL_SLOPE 1.88, HEPG2TOX_R_SQUARED 0.855, PBLUC_HILL_SLOPE 16.2, PBLUC_R_SQUARED 0.661, read-out: LUCIFERASE INFECTION ASSAY - IC50): 2.78 µM
11 | Cc1nn2c(nc(N3CCCC3)c3ccccc32)c1C=C1C(=O)NC(=S)NC1=O | 5.31 | IC50 (HEPG2TOX_HILL_SLOPE 1.87, HEPG2TOX_R_SQUARED 0.941, PBLUC_HILL_SLOPE 2.44, PBLUC_R_SQUARED 0.519, read-out: LUCIFERASE INFECTION ASSAY - IC50): 2.16 µM
12 | c1csc(CNc2ccc3ncc(-c4ccc5[nH]ccc5c4)n3n2)c1 | > 9.55 | IC50 (HEPG2TOX_HILL_SLOPE 1.89, HEPG2TOX_R_SQUARED 0.971, PBLUC_HILL_SLOPE 2.39, PBLUC_R_SQUARED 0.271, read-out: LUCIFERASE INFECTION ASSAY - IC50): 4.86 µM
13 | CCO/C=N\C1=C(C#N)C(c2ccc(OC)cc2)c2ccc3ccccc3c2O1 (configuration not stated) | > 8.58 | IC50 (HEPG2TOX_HILL_SLOPE 1.86, HEPG2TOX_R_SQUARED 0.624, read-out: LUCIFERASE INFECTION ASSAY - IC50): > 8.58 µM
14 | CCOC(=O)CCc1c(C)[nH]n(-c2nc3ccccc3[nH]2)c1=O | 3.53 | IC50 (HEPG2TOX_HILL_SLOPE 1.88, HEPG2TOX_R_SQUARED 0.728, PBLUC_HILL_SLOPE 14.3, PBLUC_R_SQUARED 0.719, read-out: LUCIFERASE INFECTION ASSAY - IC50): 3.03 µM
15 | CC(=O)c1ccccc1NC(=O)COC(=O)c1c2c(nc3ccccc13)CCC2 | > 10 | IC50 (HEPG2TOX_HILL_SLOPE 1.9, HEPG2TOX_R_SQUARED 0.384, PBLUC_HILL_SLOPE 3.75, PBLUC_R_SQUARED 0.218, read-out: LUCIFERASE INFECTION ASSAY - IC50): 6.16 µM
16 | CCN(CC)CCN1COc2c(cc(Cl)c3cccnc23)C1 | 4.94 | IC50 (HEPG2TOX_HILL_SLOPE 1.86, HEPG2TOX_R_SQUARED 0.951, PBLUC_HILL_SLOPE 8.52, PBLUC_R_SQUARED 0.457, read-out: LUCIFERASE INFECTION ASSAY - IC50): 3.81 µM

Row | Structure (SMILES) | IC90 [µM] | further results
17 | O=C(Nc1ccc(-c2nc3ccccc3[nH]2)cc1)c1ccc(NC(=O)C2CC2)s1 | 0.674 | IC50 (HEPG2TOX_HILL_SLOPE 1.89, HEPG2TOX_R_SQUARED 0.991, PBLUC_HILL_SLOPE 4.29, PBLUC_R_SQUARED 0.909, read-out: LUCIFERASE INFECTION ASSAY - IC50): 0.404 µM
18 | Clc1ccc(-c2cn3c(-c4ccccc4)cnc3cn2)c(Cl)c1 | 3.69 | IC50 (HEPG2TOX_HILL_SLOPE 1.88, HEPG2TOX_R_SQUARED 0.996, PBLUC_HILL_SLOPE 1.95, PBLUC_R_SQUARED 0.542, read-out: LUCIFERASE INFECTION ASSAY - IC50): 1.19 µM
19 | Cn1cc(-c2cnc3cnc(-c4ccsc4)cn23)cn1 | > 11.7 | IC50 (HEPG2TOX_HILL_SLOPE 1.9, HEPG2TOX_R_SQUARED 0.409, PBLUC_HILL_SLOPE 1.49, PBLUC_R_SQUARED 0.155, read-out: LUCIFERASE INFECTION ASSAY - IC50): > 11.7 µM
20 | COc1ccc(-n2nc(C)c3c(=O)cc(C(C)(C)C)[nH]c32)cc1 | 5.81 | IC50 (HEPG2TOX_HILL_SLOPE 1.9, HEPG2TOX_R_SQUARED 0.976, PBLUC_HILL_SLOPE 7.24, PBLUC_R_SQUARED 0.294, read-out: LUCIFERASE INFECTION ASSAY - IC50): 4.29 µM
21 | O=c1nc(-c2ccc3c(c2)OCCO3)[nH]c2sc(-c3ccccc3)cc12 | 4.31 | IC50 (HEPG2TOX_HILL_SLOPE 1.86, HEPG2TOX_R_SQUARED 0.902, PBLUC_HILL_SLOPE 1.77, PBLUC_R_SQUARED 0.594, read-out: LUCIFERASE INFECTION ASSAY - IC50): 1.25 µM
22 | CCOC(=O)c1ccc(NC(=S)N/N=C/c2ccccc2O)cc1 | 5.71 | IC50 (HEPG2TOX_HILL_SLOPE 1.84, HEPG2TOX_R_SQUARED 0.879, PBLUC_HILL_SLOPE 113, PBLUC_R_SQUARED 0.459, read-out: LUCIFERASE INFECTION ASSAY - IC50): 5.6 µM
23 | Cc1ccnc(NC(=O)C2CC(=O)N(c3ccc(C)c(C)c3)C2)c1 (configuration not stated) | 4.04 | IC50 (HEPG2TOX_HILL_SLOPE 1.86, HEPG2TOX_R_SQUARED 0.878, PBLUC_HILL_SLOPE 11.1, PBLUC_R_SQUARED 0.462, read-out: LUCIFERASE INFECTION ASSAY - IC50): 3.31 µM
24 | CC1CC(C)CN(Cc2ccccc2CNC(=O)Nc2nnc(C3CC3)s2)C1 (configuration not stated) | > 10 | IC50 (HEPG2TOX_HILL_SLOPE 1.87, HEPG2TOX_R_SQUARED 0.778, PBLUC_HILL_SLOPE 3.71, PBLUC_R_SQUARED 0.683, read-out: LUCIFERASE INFECTION ASSAY - IC50): 6.46 µM
25 | Cc1cccc(C(=O)N[C@H](C(=O)Nc2nc(-c3ccccn3)cs2)C(C)C)c1 | 3.94 | IC50 (HEPG2TOX_HILL_SLOPE 1.86, HEPG2TOX_R_SQUARED 0.615, PBLUC_HILL_SLOPE 3.31, PBLUC_R_SQUARED 0.556, read-out: LUCIFERASE INFECTION ASSAY - IC50): 2.03 µM
26 | O=C(NCCO)c1cccc(-c2ccc3ncc(-c4cccc(CO)c4)n3n2)c1 | 3.67 | IC50 (HEPG2TOX_HILL_SLOPE 1.86, HEPG2TOX_R_SQUARED 0.81, PBLUC_HILL_SLOPE 12.7, PBLUC_R_SQUARED 0.352, read-out: LUCIFERASE INFECTION ASSAY - IC50): 3.09 µM
27 | CC(=O)c1cccc(-c2cnc3ccc(-c4cccc(C(=O)NCCO)c4)nn23)c1 | 2.32 | IC50 (HEPG2TOX_HILL_SLOPE 1.87, HEPG2TOX_R_SQUARED 0.674, PBLUC_HILL_SLOPE 4.19, PBLUC_R_SQUARED 0.651, read-out: LUCIFERASE INFECTION ASSAY - IC50): 1.38 µM
28 | Cc1ccc(-c2nc(COC(=O)Cc3ccccc3[N+](=O)[O-])cs2)cc1 | > 10 | IC50 (HEPG2TOX_HILL_SLOPE 1.86, HEPG2TOX_R_SQUARED 0.968, PBLUC_HILL_SLOPE 3.1, PBLUC_R_SQUARED 0.491, read-out: LUCIFERASE INFECTION ASSAY - IC50): 6.23 µM
29 | Cc1sc2nc(-c3cccnc3)nc(NCCNc3ccccn3)c2c1C | 1.71 | IC50 (HEPG2TOX_HILL_SLOPE 1.88, HEPG2TOX_R_SQUARED 0.918, PBLUC_HILL_SLOPE 8.99, PBLUC_R_SQUARED 0.794, read-out: LUCIFERASE INFECTION ASSAY - IC50): 1.34 µM
30 | Cc1cc(C(=O)Cn2cnc3ccccc3c2=O)c(C)n1-c1ccccc1F | > 10 | IC50 (HEPG2TOX_HILL_SLOPE 1.86, HEPG2TOX_R_SQUARED 0.464, PBLUC_HILL_SLOPE 1.21, PBLUC_R_SQUARED 0.574, read-out: LUCIFERASE INFECTION ASSAY - IC50): 3.66 µM
31 | CNC(=O)c1csc(C(O)c2cccc(C(F)(F)F)c2)n1 (configuration not stated) | 3.81 | IC50 (HEPG2TOX_HILL_SLOPE 1.87, HEPG2TOX_R_SQUARED 0.885, PBLUC_HILL_SLOPE 18.2, PBLUC_R_SQUARED 0.279, read-out: LUCIFERASE INFECTION ASSAY - IC50): 3.38 µM
